Data taken from PMC11314063, “Inhibition of DNA Topoisomerase Ι by Flavonoids and Polyacetylenes Isolated from Bidens pilosa L” (Molecules, 2024).
Where two headings read alike, the source gives them in different places.

Legend:
[1] = SRB cytotoxicity assay, hepatocyte HL-7702; format: cell-based, human
Description: (§1) The cell lines MDA-MB-231 (No. TCHu227), A549 (No. TCHu150), and HepG2 (No. TCHu72) were obtained from the Cell Bank/Stem Cell Bank, Chinese Academy of Sciences (Shanghai, China). The cell lines DLD-1 (No. CC0507) and HCT116 (No. CC0506) were obtained from the Cell Bank of Cellcook Biotech Co., Ltd. (Guangzhou, China). Cell line HL-7702 (No. BNCC338358) was obtained from Bena Culture Collection (Zhengzhou, China).
(§2) The human cancer cell lines MDA-MB-231 (breast adenocarcinoma), DLD-1 (colorectal adenocarcinoma), A549 (lung epithelial carcinoma), HCT116 (colorectal adenocarcinoma), HepG2 (hepatocellular carcinoma), and human hepatocyte HL-7702 were cultured in Dulbecco’s modified eagle medium (DMEM, Biological Industries, Beit Haemek, Israel) containing 10% (v/v) fetal bovine serum (FBS, Biological Industries, Beit Haemek, Israel) at 37 °C in a humidified incubator (ThermoFisher, Carlsbad, CA, USA) with a 5% CO2 atmosphere.

[2] = tested on: A549; experiment: SRB cytotoxicity assay, A549; format: cell-based; conditions: Homo sapiens, read-out: IC50 Cytotoxicity A549
Description: as §1, §2

[3] = tested on: HepG2; experiment: SRB cytotoxicity assay, HepG2; format: cell-based; conditions: Homo sapiens, read-out: IC50 Cytotoxicity HepG2
Description: as §1, §2

[4] = target: T1, DNA Topo I (Homo sapiens, UniProt P11387); experiment: Topo I inhibition assay (DNA relaxation assay); format: biochemical; conditions: for IC50: DNA relaxation assay, pBR322, mean ± SD; for percentage inhibition on Topo I activity / inhibition at 400 µM: at 400 μM; for inhibition at 400 µM: read-out: percentage inhibition on Topo I activity
T1 construct: purchased ThermoFisher, Waltham, MA, USA
T1 sequence (P11387 1-765): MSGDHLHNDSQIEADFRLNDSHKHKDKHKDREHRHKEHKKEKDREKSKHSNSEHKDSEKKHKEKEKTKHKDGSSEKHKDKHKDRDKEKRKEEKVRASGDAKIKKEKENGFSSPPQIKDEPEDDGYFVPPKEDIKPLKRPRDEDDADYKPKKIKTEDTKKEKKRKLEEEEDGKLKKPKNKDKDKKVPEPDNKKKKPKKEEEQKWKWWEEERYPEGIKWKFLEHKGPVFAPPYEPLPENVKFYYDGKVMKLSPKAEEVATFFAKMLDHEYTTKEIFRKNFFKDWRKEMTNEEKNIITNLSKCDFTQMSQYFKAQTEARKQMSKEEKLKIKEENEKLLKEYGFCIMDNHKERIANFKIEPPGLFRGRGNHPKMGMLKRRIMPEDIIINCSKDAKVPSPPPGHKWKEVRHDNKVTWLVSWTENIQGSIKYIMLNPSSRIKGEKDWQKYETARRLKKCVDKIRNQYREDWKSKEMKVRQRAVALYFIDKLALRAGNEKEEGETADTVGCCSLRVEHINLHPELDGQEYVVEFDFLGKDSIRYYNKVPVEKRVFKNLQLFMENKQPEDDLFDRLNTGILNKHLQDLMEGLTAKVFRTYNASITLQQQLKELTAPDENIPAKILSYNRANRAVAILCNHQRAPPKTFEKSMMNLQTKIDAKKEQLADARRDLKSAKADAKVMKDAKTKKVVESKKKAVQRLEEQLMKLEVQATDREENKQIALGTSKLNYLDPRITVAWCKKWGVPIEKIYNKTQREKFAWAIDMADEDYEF
Experimental: The DNA relaxation assay was adopted to investigate the compounds’ inhibitory activities on Topo I. Different concentrations of the compounds, dissolved and diluted in DMSO, were added into the relaxation buffer (50 mM Tris, pH 7.5, 50 mM KCl, 10 mM MgCl2, 0.1 mM EDTA, 0.5 Mm dithiothreitol, and 0.05 mg/mL bovine serum albumin) containing 0.2 U Topo I (ThermoFisher, Waltham, MA, USA) and incubated at room temperature for 10 min. After that, 500 ng supercoiled pBR322 plasmid DNA (ThermoFisher, Waltham, MA, USA) was added and then incubated at 37 °C for another 30 min. Finally, the reactions were stopped with a stopping solution (5% sodium dodecyl sulfate, 0.0025% bromophenol blue, and 25% glycerol), and the mixtures were applied onto 0.8% agarose gel and subjected to electrophoresis for 1.5 h in Tris-Acetate-EDTA buffer. After being stained with GelRed (Biotium, Fremont, CA, USA), the gel was imagined with the imaging system (Biotop, Shanghai, China). […] The band density of the supercoiled DNA was quantified by the ImageJ software (version 1.53a, National Institutes of Health, Bethesda, MD, USA), and the inhibition activity is expressed as the percentage inhibition and calculated by formula: Inhibition % = [(A − B)/(C − B)] × 100%, where A is the band density of the tested samples, B is the band density of the negative control, and C is the band density of the blank control.

[5] = tested on: MDA-MB-231; experiment: SRB cytotoxicity assay, MDA-MB-231; format: cell-based; conditions: Homo sapiens, read-out: IC50 Cytotoxicity MDA-MB-231
Description: as §1, §2

[6] = tested on: DLD-1; experiment: SRB cytotoxicity assay, DLD-1; format: cell-based; conditions: Homo sapiens, read-out: IC50 Cytotoxicity DLD-1
Description: as §1, §2

[7] = tested on: HCT116; experiment: SRB cytotoxicity assay, HCT116; format: cell-based; conditions: Homo sapiens, read-out: IC50 Cytotoxicity HCT116
Description: as §1, §2

[8] = HL-7702 hepatocyte cell line, SRB assay, 48 h, human hepatocyte, mean ± SD, read-out: IC50 Cytotoxicity HL-7702
[9] = A549, SRB assay, 48 h, mean ± SD
[10] = HepG2, SRB assay, 48 h, mean ± SD
[11] = MDA-MB-231, SRB assay, 48 h, mean ± SD
[12] = DLD-1, SRB assay, 48 h, mean ± SD
[13] = HCT-116, SRB assay, 48 h, mean ± SD

Row | SMILES | IC50 at 48 h [1, 8] | IC50 [2, 9] | IC50 [3, 10] | IC50 [4] | percentage inhibition on Topo I activity [4] | IC50 [5, 11] | IC50 [6, 12] | IC50 [7, 13] | inhibition at 400 µM [4] | IC50 at 48 h ([1]; human) | IC50 ([2]; A549, 48 h) | IC50 ([3]; HepG2, 48 h) | IC50 ([5]; MDA-MB-231, 48 h) | IC50 ([6]; DLD-1, 48 h) | IC50 ([7]; HCT-116, 48 h) | IC50 at 48 h ([1]; SRB assay, 48 h, human hepatocyte, mean ± SD, read-out: IC50 Cytotoxicity HL-7702)
1 | COc1ccc([C@@H]2CC(=O)c3c(O)cc(O[C@@H]4O[C@H](CO)[C@@H](O)[C@H](O)[C@H]4O)cc3O2)cc1O [Compound 17] | > 200 µM | > 200 µM | > 200 µM | > 400 µM | no inhibition | > 200 µM | > 200 µM | > 200 µM |  |  |  |  |  |  |  | 
2 | COc1ccc([C@@H]2CC(=O)c3ccc(O)c(O[C@@H]4O[C@H](CO)[C@@H](O)[C@H](O)[C@H]4O)c3O2)cc1O [Compound 16] | > 200 µM | > 200 µM | > 200 µM | > 400 µM |  | > 200 µM | > 200 µM | > 200 µM | 10.9% |  |  |  |  |  |  | 
3 | CC[C@@]1(O)C(=O)OCc2c1cc1n(c2=O)Cc2cc3ccccc3nc2-1 [CPT, Camptothecin, reference compound] | 2.11 µM | 4.41 ± 1.11 µM | 1.71 ± 0.47 µM |  |  | 20.4 ± 3.7 µM | 17 ± 3.82 µM | 12.1 ± 5.74 µM |  |  |  |  |  |  |  | 
4 | CC#CC#CC#C/C=C/CCC(CO)O[C@@H]1O[C@H](CO)[C@@H](O)[C@H](O)[C@H]1O (stereo partly shown) [Compound 26] | > 200 µM | 188 ± 15.8 µM | > 200 µM | > 400 µM |  | > 200 µM | > 200 µM | > 200 µM |  |  |  |  |  |  |  | 
5 | COc1ccc(/C=C/C(=O)c2ccc(O)c(O[C@@H]3O[C@H](CO)[C@@H](O)[C@H](O)[C@H]3O)c2O)cc1O [Compound 2] | > 200 µM | > 200 µM | > 200 µM | 329 ± 58.8 µM |  | > 200 µM | > 200 µM | > 200 µM |  |  |  |  |  |  |  | 
6 | CC(O)CC#CC#Cc1ccccc1 (stereo not shown) [Compound 22] | 161 ± 2.18 µM | 125 ± 23.4 µM | 179 ± 3.62 µM | 178 ± 45.7 µM |  | 146 ± 7.17 µM | 142 ± 10.2 µM | 118 ± 5.7 µM |  |  |  |  |  |  |  | 
7 | COc1cc(O)c2c(=O)c(OC)c(-c3ccc(O)c(O)c3)oc2c1 [Compound 4] | 19.6 ± 0.62 µM | 8.16 ± 4.04 µM | 3.05 ± 1.31 µM | > 400 µM | no inhibition | > 200 µM | 7.14 ± 0.35 µM | 4.52 ± 0.04 µM |  |  |  |  |  |  |  | 
8 | COc1c(O[C@@H]2O[C@H](CO)[C@@H](O)[C@H](O)[C@H]2O)cc2oc(-c3ccc(O)c(O)c3)c(OC)c(=O)c2c1O [Compound 12] | > 200 µM | > 200 µM | > 200 µM | > 400 µM |  | > 200 µM | > 200 µM | > 200 µM | 26.4% |  |  |  |  |  |  | 
9 | O=C1/C(=C/c2ccc(O)c(O)c2)Oc2c1ccc(O[C@@H]1O[C@H](CO)[C@@H](O)[C@H](O)[C@H]1O)c2O [Compound 18] | > 200 µM | > 200 µM | > 200 µM | > 400 µM |  | > 200 µM | > 200 µM | > 200 µM | 46.7% |  |  |  |  |  |  | 
10 | COc1ccc(/C=C/C(=O)c2ccc(O[C@@H]3O[C@H](CO)[C@@H](O)[C@H](O)[C@H]3O)c(O[C@@H]3O[C@H](CO)[C@@H](O)[C@H](O)[C@H]3O)c2O)cc1O [Compound 1, 4-O-methylokanin 3′,4′-di-O-β-D-glucopyranoside] | > 200 µM | > 200 µM | > 200 µM | 394 ± 39 µM |  | > 200 µM | > 200 µM | > 200 µM |  |  |  |  |  |  |  | 
11 | O=c1cc(-c2ccc(O)c(O)c2)oc2cc(O)cc(O)c12 [Compound 15, luteolin] |  |  |  | 89.9 ± 28.1 µM |  |  |  |  |  | > 200 µM | 93.9 ± 2.92 µM | 175 ± 16.6 µM | 94.91 ± 0.5 µM | 69.2 ± 4.04 µM | 31.7 ± 1.54 µM | 
12 | COc1cc(OC)cc(-c2oc3cc(O[C@@H]4O[C@H](CO)[C@@H](O)[C@H](O)[C@H]4O)cc(O)c3c(=O)c2O)c1 [Compound 10] | 114.8 ± 0.55 µM | > 200 µM | > 200 µM | > 400 µM | no inhibition | > 200 µM | 63 ± 4.08 µM | 59.3 ± 4.56 µM |  |  |  |  |  |  |  | 
13 | CC#CC#CC#C/C=C/CCC(CCO)O[C@@H]1O[C@H](CO)[C@@H](O)[C@H](O)[C@H]1O (stereo partly shown) [Compound 25] |  |  |  | > 400 µM |  |  |  |  |  |  | 174 ± 12.3 µM | > 200 µM | > 200 µM | 187 ± 17.4 µM | 162 ± 15.8 µM | > 200 µM
14 | OC[C@H](O)CC#CC#Cc1ccc(O)cc1 [Compound 20, (R)-7-(4-hydroxyphenyl) hepta-4,6-diyne-1,2-diol] | > 200 µM | 194 ± 12.8 µM | > 200 µM | 301 ± 34.9 µM |  | > 200 µM | > 200 µM | 174 ± 2.47 µM |  |  |  |  |  |  |  | 
